Experimental data from patent publication US12208110B2 (priority 2020, dated 2025).
Read-outs that look alike come from different tables or passages of the source.

Key:
Type in all cases: cell-based
SARS-CoV-2 = experiment: microbe, parasite or virus in culture; settings: Severe acute respiratory syndrome coronavirus 2, 48 h
[1] = MT4 cytotoxicity analysis (CellTiter-Glo); settings: human
Description: Example 79: MT4 Cytotoxicity Analysis
3-fold serially diluted compound in DMSO, ranging from 2.5 uM to 10 mM, were added by acoustic transfer (Echo) in quadruplicate into black 384-well plates at 200 nl/well. After compound addition, 40 ul MT-4 cells at 80,000/ml were added to each well using a MicroFlo liquid dispenser (BioTek, Winooski, VT) and the cells were cultured for five days at 37° C. Following the incubation, cell viability was determined by adding 35 μL of CellTiter-Glo viability reagent and mixed thoroughly using ViaFlo 384 well workstation. The mixture was incubated for at least 10 minutes at 25° C., and the luminescence signal was quantified on an EnVision plate reader.

[2] = tested on: RSV-Fluc (Recombinant Respiratory Syncytial virus strain A2 containing the firefly luciferase reporter); experiment: microbe, parasite or virus in culture; settings: human respiratory syncytial virus, NHBE, 72 h, read-out: RSV-Fluc EC50 (nM, NHBE)
[3] = MT-4 cells, five days, CellTiter-Glo, read-out: MT4 CC50

Row | SMILES | EC50 (SARS-CoV-2) | CC50 at 5 days ([1]; MT4 CC50 (nM)) | EC50 [2] | CC50 at 5 days [1, 3]
1 | CCCCCCCCCCCCCCCCCCOC[C@H](COP(=O)(O)OC[C@H]1O[C@@](C#N)(c2ccc3c(N)ncnn23)[C@H](O)[C@@H]1O)N(C)C(=O)c1ccc(F)c(Cl)c1 [Example 4, ((2R,3S,4R,5R)-5-(4-aminopyrrolo[2,1-f][1,2,4]triazin-7-yl)-5-cyano-3,4-dihydroxytetrahydrofuran-2-yl)methyl ((R)-2-(3-chloro-4-fluoro-N-methylbenzamido)-3-(octadecyloxy)propyl) hydrogen phosphate] | 9.4 µM | 13000 nM | 540 nM | 
2 | CCCCCCCCCCCCCCCCCCO[C@@H](C)[C@H](COP(=O)(O)OC[C@H]1O[C@@](C#N)(c2ccc3c(N)ncnn23)[C@H](O)[C@@H]1O)OCc1ccccc1 [Example 5, ((2R,3S,4R,5R)-5-(4-aminopyrrolo[2,1-f][1,2,4]triazin-7-yl)-5-cyano-3,4-dihydroxytetrahydrofuran-2-yl)methyl ((2S,3S)-2-(benzyloxy)-3-(octadecyloxy)butyl) hydrogen phosphate] | 2.5 µM | 3400 nM | 50 nM | 
3 | CCCCCCCCCCCCCCCCCCOC[C@H](COP(=O)(O)OC[C@H]1O[C@@](C#N)(c2ccc3c(N)ncnn23)[C@H](O)[C@@H]1O)SCc1ccccc1 [Example 7, ((2R,3S,4R,5R)-5-(4-aminopyrrolo[2,1-f][1,2,4]triazin-7-yl)-5-cyano-3,4-dihydroxytetrahydrofuran-2-yl)methyl ((R)-2-(benzylthio)-3-(octadecyloxy)propyl) hydrogen phosphate] | 10 µM | 39000 nM | 360 nM | 
4 | CCCCCCCCCCCCCCCCCCO[C@H](C)[C@H](COP(=O)(O)OC[C@H]1O[C@@](C#N)(c2ccc3c(N)ncnn23)[C@H](O)[C@@H]1O)OCc1ccccc1 [Example 8, ((2R,3S,4R,5R)-5-(4-aminopyrrolo[2,1-f][1,2,4]triazin-7-yl)-5-cyano-3,4-dihydroxytetrahydrofuran-2-yl)methyl ((2S,3R)-2-(benzyloxy)-3-(octadecyloxy)butyl) hydrogen phosphate] | 2.9 µM | 1800 nM | 160 nM | 
5 | CCCCCCCCCCCCCCCCCCOC[C@H](COP(=O)(O)OC[C@H]1O[C@@](C#N)(c2ccc3c(N)ncnn23)[C@H](O)[C@@H]1O)N1Cc2cc(Cl)c(Cl)cc2C1 [Example 9, ((2R,3S,4R,5R)-5-(4-aminopyrrolo[2,1-f][1,2,4]triazin-7-yl)-5-cyano-3,4-dihydroxytetrahydrofuran-2-yl)methyl ((R)-2-(5,6-dichloroisoindolin-2-yl)-3-(octadecyloxy)propyl) hydrogen phosphate] | 9 µM | 20000 nM | 490 nM | 
6 | CCCCCCCCCCCCCCCCCCOC[C@H](COP(=O)(O)OC[C@H]1O[C@@](C#N)(c2ccc3c(N)ncnn23)[C@H](O)[C@@H]1O)NC(=O)c1ccccc1C(=O)O [Example 14, 2-(((2R)-1-(((((2R,3S,4R,5R)-5-(4-aminopyrrolo[2,1-f][1,2,4]triazin-7-yl)-5-cyano-3,4-dihydroxytetrahydrofuran-2-yl)methoxy)(hydroxy)phosphoryl)oxy)-3-(octadecyloxy)propan-2-yl)carbamoyl)benzoic acid] | 0.7 µM | 26000 nM | 53 nM | 
7 | CCCCCCCCCCCCCCCCCCOC[C@H](COP(=O)(O)OC[C@H]1O[C@@](C#N)(c2ccc3c(N)ncnn23)[C@H](O)[C@@H]1O)N1C(=O)c2ccccc2C1=O [Example 15, ((2R,3S,4R,5R)-5-(4-aminopyrrolo[2,1-f][1,2,4]triazin-7-yl)-5-cyano-3,4-dihydroxytetrahydrofuran-2-yl)methyl ((R)-2-(1,3-dioxoisoindolin-2-yl)-3-(octadecyloxy)propyl) hydrogen phosphate] | 2.5 µM | 35000 nM | 140 nM | 
8 | CCCCCCCCCCCCCCCCCCOC[C@H](COP(=O)(O)OC[C@H]1O[C@@](C#N)(c2ccc3c(N)ncnn23)[C@H](O)[C@@H]1O)Nc1cccc(C#N)c1 [Example 16, ((2R,3S,4R,5R)-5-(4-aminopyrrolo[2,1-f][1,2,4]triazin-7-yl)-5-cyano-3,4-dihydroxytetrahydrofuran-2-yl)methyl ((R)-2-((3-cyanophenyl)amino)-3-(octadecyloxy)propyl) hydrogen phosphate] | 1.1 µM | 1900 nM | 100 nM | 
9 | CCCCCCCCCCCCCCCCCCOC[C@H](COc1ccccc1)OP(=O)(O)OC[C@H]1O[C@@](C#N)(c2ccc3c(N)ncnn23)[C@H](O)[C@@H]1O [Example 18, ((2R,3S,4R,5R)-5-(4-aminopyrrolo[2,1-f][1,2,4]triazin-7-yl)-5-cyano-3,4-dihydroxytetrahydrofuran-2-yl)methyl ((R)-1-(octadecyloxy)-3-phenoxypropan-2-yl) hydrogen phosphate] | 1.8 µM |  | 69 nM | 670 nM
10 | CCCCCCCCCCCCCCCCCCOCCOP(=O)(O)OC[C@H]1O[C@@](C#N)(c2ccc3c(N)ncnn23)[C@H](O)[C@@H]1O [Example 21, ((2R,3S,4R,5R)-5-(4-Aminopyrrolo[2,1-f][1,2,4]triazin-7-yl)-5-cyano-3,4-dihydroxytetrahydrofuran-2-yl)methyl (2-(octadecyloxy)ethyl) hydrogen phosphate] | 9.1 µM |  | 250 nM | 2300 nM
11 | CCCCCCCCCCCCCCCCCCO[C@H](COCc1ccccc1)COP(=O)(O)OC[C@H]1O[C@@](C#N)(c2ccc3c(N)ncnn23)[C@H](O)[C@@H]1O [Example 22, ((2R,3S,4R,5R)-5-(4-aminopyrrolo[2,1-f][1,2,4]triazin-7-yl)-5-cyano-3,4-dihydroxytetrahydrofuran-2-yl)methyl ((R)-3-(benzyloxy)-2-(octadecyloxy)propyl) hydrogen phosphate] | 3.9 µM |  | 150 nM | 9600 nM
12 | CCCCCCCCCCCCCCCCO[C@H](COCc1ccccc1)COP(=O)(O)OC[C@H]1O[C@@](C#N)(c2ccc3c(N)ncnn23)[C@H](O)[C@@H]1O [Example 23, ((2R,3S,4R,5R)-5-(4-aminopyrrolo[2,1-f][1,2,4]triazin-7-yl)-5-cyano-3,4-dihydroxytetrahydrofuran-2-yl)methyl ((R)-3-(benzyloxy)-2-(hexadecyloxy)propyl) hydrogen phosphate] | 10 µM |  | 83 nM | 23000 nM
13 | CCCCCCCCCCCCCCO[C@H](COCc1ccccc1)COP(=O)(O)OC[C@H]1O[C@@](C#N)(c2ccc3c(N)ncnn23)[C@H](O)[C@@H]1O [Example 24, ((2R,3S,4R,5R)-5-(4-Aminopyrrolo[2,1-f][1,2,4]triazin-7-yl)-5-cyano-3,4-dihydroxytetrahydrofuran-2-yl)methyl ((R)-3-(benzyloxy)-2-(tetradecyloxy)propyl) hydrogen phosphate] | 9.9 µM |  | 73 nM | 35000 nM
14 | CCCCCCCCCCCCCCCCCCOC[C@H](CO[P@@](=O)(S)OC[C@H]1O[C@@](C#N)(c2ccc3c(N)ncnn23)[C@H](O)[C@@H]1O)OCc1ccccc1 [Example 28, O-(((2R,3S,4R,5R)-5-(4-aminopyrrolo[2,1-f][1,2,4]triazin-7-yl)-5-cyano-3,4-dihydroxytetrahydrofuran-2-yl)methyl) O—((R)-2-(benzyloxy)-3-(octadecyloxy)propyl)S-hydrogen (R)-phosphorothioate] | 3.8 µM | 24000 nM | 190 nM | 
15 | CCCCCCCCCCCCCCCCCCOC[C@H](COP(=O)(O)OC[C@H]1O[C@@](C#N)(c2ccc3c(N)ncnn23)[C@H](O)[C@@H]1O)Oc1c(C#N)cc(C)cc1C#N [Example 29, ((2R,3S,4R,5R)-5-(4-aminopyrrolo[2,1-f][1,2,4]triazin-7-yl)-5-cyano-3,4-dihydroxytetrahydrofuran-2-yl)methyl ((R)-2-(2,6-dicyano-4-methylphenoxy)-3-(octadecyloxy)propyl) hydrogen phosphate] | 2.7 µM | 500 nM | 70 nM | 
16 | CCCCCCCCCCCCCCCCCCOC[C@H](COP(=O)(O)OC[C@H]1O[C@@](C#N)(c2ccc3c(N)ncnn23)[C@H](O)[C@@H]1O)Nc1ccccc1C(=O)O [Example 31, 2-(((2R)-1-(((((2R,3S,4R,5R)-5-(4-aminopyrrolo[2,1-f][1,2,4]triazin-7-yl)-5-cyano-3,4-dihydroxytetrahydrofuran-2-yl)methoxy)(hydroxy)phosphoryl)oxy)-3-(octadecyloxy)propan-2-yl)amino)benzoic acid] | 6.3 µM | 38000 nM | 260 nM | 
17 | CCCCCCCCCCCCCCCCCCOC[C@H](COP(=O)(O)OC[C@H]1O[C@@](C#N)(c2ccc3c(N)ncnn23)[C@H](O)[C@@H]1O)OCc1cc(F)cc(S(C)(=O)=O)c1 [Example 32, ((2R,3S,4R,5R)-5-(4-aminopyrrolo[2,1-f][1,2,4]triazin-7-yl)-5-cyano-3,4-dihydroxytetrahydrofuran-2-yl)methyl ((R)-2-((3-fluoro-5-(methylsulfonyl)benzyl)oxy)-3-(octadecyloxy)propyl) hydrogen phosphate] | 0.12 µM | 340 nM | 40 nM | 
18 | CCCCCCCCCCCCCCCCCCOC[C@H](COCc1cc(F)cc(C#N)c1)OP(=O)(O)OC[C@H]1O[C@@](C#N)(c2ccc3c(N)ncnn23)[C@H](O)[C@@H]1O [Example 36, ((2R,3S,4R,5R)-5-(4-aminopyrrolo[2,1-f][1,2,4]triazin-7-yl)-5-cyano-3,4-dihydroxytetrahydrofuran-2-yl)methyl ((R)-1-((3-cyano-5-fluorobenzyl)oxy)-3-(octadecyloxy)propan-2-yl) hydrogen phosphate] | 1.2 µM | 28000 nM | 190 nM | 
